According to ChEMBL document CHEMBL3046588, “Design, synthesis, and in vitro evaluation of cytotoxic activity of new substituted 1,4-benzoquinones and hydroquinones” (2007):

Legend:
Type in all cases: functional
[1] = Cytotoxicity against Homo sapiens (human) breast cancer cells after 48 hr by SRB assay; details: Cancer cell lines; for LC50 (concentration giving 50% net cell kill): pooled result: one value given for 9 cell lines, strains, targets or settings
[2] = Cytotoxicity against Homo sapiens (human) prostate cancer cells after 48 hr by SRB assay; details: Cancer cell lines
[3] = Cytotoxicity against Homo sapiens (human) renal cancer cells after 48 hr by SRB assay; details: Cancer cell lines
[4] = Cytotoxicity against Homo sapiens (human) ovarian cancer cells after 48 hr by SRB assay; details: Cancer cell lines
[5] = Cytotoxicity against Homo sapiens (human) CNS cancer cells after 48 hr by SRB assay; details: Cancer cell lines
[6] = Cytotoxicity against Homo sapiens (human) melanoma cellsafter 48 hr by SRB assay; details: Melanoma cell
[7] = Cytotoxicity against Homo sapiens (human) colon cancer cells after 48 hr by SRB assay; details: Cancer cell lines
[8] = Cytotoxicity against Homo sapiens (human) leukemia cells after 48 hr by SRB assay; details: Leukemia cell
[9] = Cytotoxicity against Homo sapiens (human) non-small cell lung cancer cells after 48 hr by SRB assay; details: Cancer cell lines
SF-268 = assay: Cytotoxicity against Homo sapiens (human) SF268 cells assessed as cellular growth after 48 hr by Alamar blue assay; set-up: concentration or dose not given beside the values
MCF7 = assay: Cytotoxicity against Homo sapiens (human) MCF7 cells assessed as cellular growth after 48 hr by Alamar blue assay; set-up: concentration or dose not given beside the values
NCI-H460 = assay: Cytotoxicity against Homo sapiens (human) NCI-H460 cells assessed as cellular growth after 48 hr by Alamar blue assay; set-up: concentration or dose not given beside the values

Row | SMILES | GI50 [1] | TGI [1] | LC50 (concentration giving 50% net cell kill) [1] | GI50 [2] | TGI [2] | GI50 [3] | TGI [3] | GI50 [4] | TGI [4] | GI50 [5] | TGI [5] | GI50 [6] | TGI [6] | GI50 [7] | TGI [7] | GI50 [8] | TGI [8] | GI50 [9] | TGI [9] | Activity (SF-268) | other results
1 | COc1ccc(OC)c(-c2cc(-c3ccccc3)nn2-c2ccc(S(N)(=O)=O)cc2)c1 | 12.3 µM | 32.9 µM | 73 µM | 13.9 µM | 28.8 µM | 13 µM | 29.8 µM | 13.6 µM | 43.7 µM | 15 µM | 31.1 µM | 15.3 µM | 40.8 µM | 11.9 µM | 27.5 µM | 6.94 µM | 68.5 µM | 31.4 µM | 40.7 µM | <32% | Activity (MCF7): <32%; Activity (NCI-H460): <32%
2 | NS(=O)(=O)c1ccc(-n2nc(-c3ccccc3)cc2-c2cc(O)ccc2O)cc1 | 83.9 µM | 96 µM | 100 µM | 77.6 µM | 100 µM | 88.1 µM | 99.3 µM | 81.3 µM | 98.2 µM | 86.6 µM | 100 µM | 61.9 µM | 92 µM | 75.7 µM | 100 µM | 49.6 µM | 100 µM | 88.9 µM | 100 µM | <32% | Activity (MCF7): <32%; Activity (NCI-H460): <32%
3 | O=C(CC1C(=O)NN(c2ccc(Br)cc2)C1=O)c1cc(O)ccc1O (stereo not drawn) | 16.1 µM | 40.9 µM | 49.9 µM | 22.7 µM | 50 µM | 23.7 µM | 46.9 µM | 26.2 µM | 44.3 µM | 18.8 µM | 40.5 µM | 22 µM | 42.4 µM | 17.7 µM | 43.3 µM | 34.1 µM | 50 µM | 21.7 µM | 48.4 µM | <32% | Activity (MCF7): <32%; Activity (NCI-H460): <32%
4 | NS(=O)(=O)c1ccc(-n2nc(-c3ccc(Cl)cc3)cc2-c2cc(O)ccc2O)cc1 | 16.7 µM | 54.5 µM | 76.6 µM | 13.4 µM | 29.8 µM | 12 µM | 35.4 µM | 14.7 µM | 50.9 µM | 17.8 µM | 35.5 µM | 14.6 µM | 38.9 µM | 15.1 µM | 43.1 µM | 5.03 µM | 61.4 µM | 13 µM | 39.1 µM | <32% | Activity (MCF7): <32%; Activity (NCI-H460): <32%
5 | CC1=NN(c2ccc(Br)cc2)C(=O)C1CC(=O)c1cc(O)ccc1O (stereo not drawn) | 19.1 µM | 38.2 µM | 49.6 µM | 42.2 µM | 50 µM | 39.8 µM | 46.1 µM | 34.2 µM | 50 µM | 25.8 µM | 46 µM | 28 µM | 42.6 µM | 36 µM | 45.5 µM | 7.75 µM | 35.8 µM | 38.2 µM | 48.6 µM | <32% | Activity (MCF7): <32%; Activity (NCI-H460): <32%
6 | COc1ccc(OC)c(-c2cc(-c3ccc(Cl)cc3)nn2-c2ccccc2)c1 | 17.7 µM | 78.6 µM | 99.8 µM | 60.5 µM | 100 µM | 34.9 µM | 77.4 µM | 49 µM | 85.2 µM | 29.2 µM | 84.3 µM | 34.9 µM | 70 µM | 25.2 µM | 82.8 µM | 11.1 µM | 78.2 µM | 40.6 µM | 100 µM | <32% | Activity (MCF7): <32%; Activity (NCI-H460): <32%
7 | COc1ccc(OC)c(-c2cc(-c3ccc(Cl)cc3)nn2-c2ccc(S(N)(=O)=O)cc2)c1 | 11.5 µM | 34 µM | 74.7 µM | 7.86 µM | 20.8 µM | 13.5 µM | 39.5 µM | 16.9 µM | 50.8 µM | 16.2 µM | 37.2 µM | 12.8 µM | 36.7 µM | 0.95 µM | 38.4 µM | 4.44 µM | 52.1 µM | 10.9 µM | 44.3 µM | <32% | Activity (MCF7): <32%; Activity (NCI-H460): <32%
8 | Oc1ccc(O)c(-c2cc(-c3ccccc3)nn2-c2ccccc2)c1 | 17.1 µM | 75.7 µM | 91.3 µM | 16.7 µM | 100 µM | 22.6 µM | 67.3 µM | 37.6 µM | 75.2 µM | 18.6 µM | 71.2 µM | 22.6 µM | 63.9 µM | 28.5 µM | 77.4 µM | 35.7 µM | 100 µM | 26.9 µM | 63.6 µM | <32% | Activity (MCF7): <32%; Activity (NCI-H460): <32%
9 | Cc1ccc(-c2cc(C3=CC(=O)C=CC3=O)n(-c3ccc(S(N)(=O)=O)cc3)n2)cc1 | 51.5 µM | 95.5 µM | 99.2 µM | 36.5 µM | 100 µM | 55.6 µM | 86.8 µM | 67.4 µM | 100 µM | 65.3 µM | 100 µM | 69.4 µM | 97.3 µM | 42.4 µM | 88.8 µM | 37.4 µM | 94 µM | 53.5 µM | 100 µM | <32% | Activity (MCF7): <32%; Activity (NCI-H460): <32%
10 | Oc1ccc(O)c(-c2cc(-c3ccc(Cl)cc3)nn2-c2ccccc2)c1 | 9.25 µM | 41.1 µM | 76.1 µM | 14.6 µM | 30.7 µM | 8.86 µM | 32 µM | 8.01 µM | 60.4 µM | 17.9 µM | 34.6 µM | 8.79 µM | 32.5 µM | 5.75 µM | 16.8 µM | 3.43 µM | 49.7 µM | 6.85 µM | 33.2 µM | <32% | Activity (MCF7): <32%; Activity (NCI-H460): <32%
11 | COc1ccc(OC)c(-c2cc(-c3ccc(Cl)cc3)nn2-c2ccc(S(=O)(=O)NC(C)=O)cc2)c1 | 25.4 µM | 70.2 µM | 79.2 µM | 3.61 µM | 21.9 µM | 17.7 µM | 53.2 µM | 23.4 µM | 67.1 µM | 19.4 µM | 50 µM | 10.7 µM | 28.7 µM | 8.18 µM | 36 µM | 7.45 µM | 50.1 µM | 17.7 µM | 52.6 µM | <32% | Activity (MCF7): <32%; Activity (NCI-H460): <32%
12 | NS(=O)(=O)c1ccc(-n2nc(-c3ccc(Cl)cc3)cc2C2=CC(=O)C=CC2=O)cc1 | 21.9 µM | 62.6 µM | 92.3 µM | 21.6 µM | 71.9 µM | 23.1 µM | 50.2 µM | 26.5 µM | 65.7 µM | 23.7 µM | 53 µM | 26.7 µM | 52.7 µM | 17.6 µM | 37.4 µM | 31.8 µM | 84.6 µM | 23.9 µM | 71.1 µM | <32% | Activity (MCF7): <32%; Activity (NCI-H460): <32%
13 | COc1ccc(OC)c(-c2cc(-c3ccccc3)nn2-c2ccc(S(=O)(=O)NC(C)=O)cc2)c1 | 9.7 µM | 44.5 µM | 77.1 µM | 12 µM | 28.8 µM | 13.3 µM | 37.6 µM | 13.3 µM | 50.7 µM | 18.1 µM | 42.6 µM | 15.4 µM | 36.2 µM | 3.74 µM | 18.2 µM | 7.4 µM | 53.4 µM | 15.3 µM | 49.8 µM | <32% | Activity (MCF7): <32%; Activity (NCI-H460): <32%
14 | CC(=O)NS(=O)(=O)c1ccc(-n2nc(-c3ccccc3)cc2-c2cc(O)ccc2O)cc1 | 91.3 µM | 100 µM | 100 µM | 100 µM | 100 µM | 78.1 µM | 100 µM | 100 µM | 100 µM | 90.4 µM | 100 µM | 84.8 µM | 100 µM | 78.6 µM | 100 µM | 93.6 µM | 100 µM | 93.9 µM | 100 µM | <32% | Activity (MCF7): <32%; Activity (NCI-H460): <32%
